Experimental data from paper PMC10253522 (2023).

System: aptamer beacon probe (ABP) (DNA, aptamer) ATTCTCTCACCTGGGGGAGTATTGCGGAGGAAGGTAT
Assay: FAM-Dabcyl fluorescence quenching and fluorescence melting
Conditions: 100 mM NaCl, 5 mM MgCl2, 20 mM Tris-HCl pH 7.4, 23 and 40 °C

**Q.** With `Nc1nc2c(ncn2[C@@H]2O[C@H](COP(=O)(O)OP(=O)(O)OP(=O)(O)O)[C@@H](O)[C@H]2O)c(=O)[nH]1` as the compound, how does the binding (625 µM GTP, no complex in melting, residual quenching) read?
**A.** The binding was “weak”.

**Q.** With `Nc1ncnc2c1ncn2[C@@H]1O[C@H](COP(=O)(O)OP(=O)(O)OP(=O)(O)O)[C@@H](O)[C@H]1O` as the compound, how does the binding (133 nM probe, up to 625 µM ATP) read?
**A.** Its binding is “yes”.

**Q.** With `Nc1ccn([C@@H]2O[C@H](COP(=O)(O)OP(=O)(O)OP(=O)(O)O)[C@@H](O)[C@H]2O)c(=O)n1` as the compound, how does the binding (625 µM CTP, no complex in melting, residual quenching) read?
**A.** Its binding is “weak”.

**Q.** With `O=c1ccn([C@@H]2O[C@H](COP(=O)(O)OP(=O)(O)OP(=O)(O)O)[C@@H](O)[C@H]2O)c(=O)[nH]1` as the compound, how does the binding (625 µM UTP, no complex in melting, residual quenching) read?
**A.** Its binding is “weak”.
